# Results as given in patent US20240269139A1, “COMPOUNDS FOR TARGETED PROTEIN DEGRADATION OF KINASES” (DANA-FARBER CANCER INSTITUTE, INC., priority 2020, published 2024).
# Read-outs that look alike come from different tables or passages of the source.
# Legend:
# [1] = target: protein kinases (human kinome) (Homo sapiens, UniProt O00746); type: cell-based; settings: NME4 (O00746); experiment wp084
# [2] = target: protein kinases (human kinome) (Homo sapiens, UniProt Q5S007); type: cell-based; settings: for logFC: LRRK2 (Q5S007)
# protein kinases (human kinome) (Homo sapiens, UniProt Q5S007), sequence (Q5S007 whole entry): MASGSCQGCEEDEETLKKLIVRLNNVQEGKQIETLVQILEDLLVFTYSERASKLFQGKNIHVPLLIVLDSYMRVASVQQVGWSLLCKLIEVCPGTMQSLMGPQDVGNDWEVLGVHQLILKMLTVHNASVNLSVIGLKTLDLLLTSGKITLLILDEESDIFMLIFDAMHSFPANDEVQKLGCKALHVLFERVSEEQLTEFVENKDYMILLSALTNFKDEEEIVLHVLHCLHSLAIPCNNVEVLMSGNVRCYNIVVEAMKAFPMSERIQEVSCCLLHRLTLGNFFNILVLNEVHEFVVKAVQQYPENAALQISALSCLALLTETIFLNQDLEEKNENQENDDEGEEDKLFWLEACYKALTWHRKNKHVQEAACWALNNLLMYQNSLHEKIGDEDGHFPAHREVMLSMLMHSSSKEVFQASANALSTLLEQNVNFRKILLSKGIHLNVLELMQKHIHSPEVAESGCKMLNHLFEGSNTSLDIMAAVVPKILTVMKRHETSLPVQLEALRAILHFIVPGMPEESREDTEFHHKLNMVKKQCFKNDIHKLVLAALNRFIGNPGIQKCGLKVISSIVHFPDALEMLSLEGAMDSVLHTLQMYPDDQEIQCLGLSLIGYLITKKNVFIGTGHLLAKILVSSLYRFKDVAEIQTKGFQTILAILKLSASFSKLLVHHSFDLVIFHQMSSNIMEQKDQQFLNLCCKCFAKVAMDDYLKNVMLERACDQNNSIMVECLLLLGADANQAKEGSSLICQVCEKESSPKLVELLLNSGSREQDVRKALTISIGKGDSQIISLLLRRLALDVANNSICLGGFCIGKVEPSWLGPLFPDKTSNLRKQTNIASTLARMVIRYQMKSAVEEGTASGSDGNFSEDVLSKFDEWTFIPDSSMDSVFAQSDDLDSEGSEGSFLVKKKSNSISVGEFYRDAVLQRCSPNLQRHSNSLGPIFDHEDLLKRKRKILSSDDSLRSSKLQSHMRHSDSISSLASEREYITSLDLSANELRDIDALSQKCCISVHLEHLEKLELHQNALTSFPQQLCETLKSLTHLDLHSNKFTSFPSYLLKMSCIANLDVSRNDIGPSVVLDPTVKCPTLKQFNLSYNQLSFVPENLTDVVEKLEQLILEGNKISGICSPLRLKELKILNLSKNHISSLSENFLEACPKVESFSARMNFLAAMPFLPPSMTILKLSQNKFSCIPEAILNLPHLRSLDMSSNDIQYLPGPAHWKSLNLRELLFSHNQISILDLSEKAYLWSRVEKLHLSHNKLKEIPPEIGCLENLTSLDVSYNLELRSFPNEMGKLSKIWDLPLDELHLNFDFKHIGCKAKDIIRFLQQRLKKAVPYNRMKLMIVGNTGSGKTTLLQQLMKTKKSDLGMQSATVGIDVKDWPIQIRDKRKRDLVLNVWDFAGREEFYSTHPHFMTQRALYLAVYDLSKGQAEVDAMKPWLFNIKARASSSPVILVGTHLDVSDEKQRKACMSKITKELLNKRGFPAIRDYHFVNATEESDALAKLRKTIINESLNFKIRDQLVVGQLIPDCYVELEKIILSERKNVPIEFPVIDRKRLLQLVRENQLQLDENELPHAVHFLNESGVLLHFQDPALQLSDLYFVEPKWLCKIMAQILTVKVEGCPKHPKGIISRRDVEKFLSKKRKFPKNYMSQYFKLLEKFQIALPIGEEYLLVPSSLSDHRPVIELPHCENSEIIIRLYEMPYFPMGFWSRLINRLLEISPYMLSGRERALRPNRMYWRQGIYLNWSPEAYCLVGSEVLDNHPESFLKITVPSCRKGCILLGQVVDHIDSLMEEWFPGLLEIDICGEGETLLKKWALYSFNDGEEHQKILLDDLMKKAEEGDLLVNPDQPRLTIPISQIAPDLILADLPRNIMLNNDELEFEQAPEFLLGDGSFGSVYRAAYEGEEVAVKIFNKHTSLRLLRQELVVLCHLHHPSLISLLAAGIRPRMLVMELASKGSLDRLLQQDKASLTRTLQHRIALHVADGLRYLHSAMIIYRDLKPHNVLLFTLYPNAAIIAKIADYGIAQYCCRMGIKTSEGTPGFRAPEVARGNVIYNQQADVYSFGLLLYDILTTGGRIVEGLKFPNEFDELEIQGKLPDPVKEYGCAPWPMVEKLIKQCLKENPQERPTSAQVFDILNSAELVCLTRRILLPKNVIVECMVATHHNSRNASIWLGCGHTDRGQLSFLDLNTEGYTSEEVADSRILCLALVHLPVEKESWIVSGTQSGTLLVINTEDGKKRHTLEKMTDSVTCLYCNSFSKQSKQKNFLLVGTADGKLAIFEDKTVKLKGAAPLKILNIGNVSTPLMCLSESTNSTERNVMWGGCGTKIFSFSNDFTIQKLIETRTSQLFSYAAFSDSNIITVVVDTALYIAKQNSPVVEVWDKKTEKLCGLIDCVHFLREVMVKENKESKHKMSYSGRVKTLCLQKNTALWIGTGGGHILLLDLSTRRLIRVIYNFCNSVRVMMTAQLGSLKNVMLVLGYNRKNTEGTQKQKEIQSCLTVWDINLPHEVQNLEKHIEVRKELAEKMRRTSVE
# [3] = target: protein kinases (human kinome) (Homo sapiens, UniProt Q8N165); type: cell-based; settings: for logFC of PDIK1L (Q8N165): Experiment wp168; for logFC: PDIK1L (Q8N165), experiment wp168
# protein kinases (human kinome) (Homo sapiens, UniProt Q8N165), sequence (Q8N165 whole entry): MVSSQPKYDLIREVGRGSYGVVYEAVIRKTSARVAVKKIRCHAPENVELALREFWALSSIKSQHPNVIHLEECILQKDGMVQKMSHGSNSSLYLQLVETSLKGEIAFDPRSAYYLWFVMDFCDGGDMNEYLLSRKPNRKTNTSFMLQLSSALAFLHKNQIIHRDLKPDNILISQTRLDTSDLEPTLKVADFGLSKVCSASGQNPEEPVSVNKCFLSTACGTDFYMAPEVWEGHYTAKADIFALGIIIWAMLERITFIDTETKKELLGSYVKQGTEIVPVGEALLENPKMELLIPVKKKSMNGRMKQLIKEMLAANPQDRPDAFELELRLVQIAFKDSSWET
# [4] = target: protein kinases (human kinome) (Homo sapiens, UniProt O75676); type: cell-based; settings: for logFC: RPS6KA4 (O75676)
# protein kinases (human kinome) (Homo sapiens, UniProt O75676), sequence (O75676 whole entry): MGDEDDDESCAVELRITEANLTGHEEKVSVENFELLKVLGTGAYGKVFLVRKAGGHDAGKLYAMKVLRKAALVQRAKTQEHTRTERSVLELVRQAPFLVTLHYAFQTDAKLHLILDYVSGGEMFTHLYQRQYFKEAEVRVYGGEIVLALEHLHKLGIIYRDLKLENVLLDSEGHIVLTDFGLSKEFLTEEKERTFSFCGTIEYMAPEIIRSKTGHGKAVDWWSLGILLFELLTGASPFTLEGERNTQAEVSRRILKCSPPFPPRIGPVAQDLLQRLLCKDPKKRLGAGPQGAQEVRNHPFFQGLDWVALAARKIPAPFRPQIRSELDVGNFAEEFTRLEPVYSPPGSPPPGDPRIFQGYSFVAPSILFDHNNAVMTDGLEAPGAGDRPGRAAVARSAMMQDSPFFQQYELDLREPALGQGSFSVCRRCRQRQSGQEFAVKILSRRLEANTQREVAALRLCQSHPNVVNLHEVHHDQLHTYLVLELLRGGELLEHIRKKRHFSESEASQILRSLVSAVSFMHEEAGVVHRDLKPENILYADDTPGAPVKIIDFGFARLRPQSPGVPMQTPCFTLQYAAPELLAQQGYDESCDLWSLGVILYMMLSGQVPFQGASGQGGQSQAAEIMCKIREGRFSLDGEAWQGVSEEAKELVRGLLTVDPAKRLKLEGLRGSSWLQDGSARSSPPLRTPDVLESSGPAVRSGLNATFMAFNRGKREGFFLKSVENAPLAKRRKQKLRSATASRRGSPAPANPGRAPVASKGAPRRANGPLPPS
# [5] = target: T1, protein kinases (human kinome) (Homo sapiens, UniProt Q9NWZ3); type: cell-based; settings: for logFC: IRAK4 (Q9NWZ3-1)
# T1 sequence (Q9NWZ3 1-460): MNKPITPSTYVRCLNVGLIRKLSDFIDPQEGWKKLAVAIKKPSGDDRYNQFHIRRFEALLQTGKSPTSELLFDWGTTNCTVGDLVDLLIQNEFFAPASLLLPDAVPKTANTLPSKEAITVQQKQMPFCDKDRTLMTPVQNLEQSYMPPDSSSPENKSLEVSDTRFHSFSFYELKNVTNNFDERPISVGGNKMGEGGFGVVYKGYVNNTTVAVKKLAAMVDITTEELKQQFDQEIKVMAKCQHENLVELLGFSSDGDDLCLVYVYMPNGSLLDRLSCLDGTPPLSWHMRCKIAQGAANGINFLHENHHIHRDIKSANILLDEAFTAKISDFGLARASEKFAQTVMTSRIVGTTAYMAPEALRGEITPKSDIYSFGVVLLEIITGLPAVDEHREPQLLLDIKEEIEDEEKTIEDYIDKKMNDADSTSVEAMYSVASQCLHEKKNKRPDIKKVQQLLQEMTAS
# [6] = target: T2, extended human kinome (kinase-like proteins) (Homo sapiens, UniProt Q9UHH9); test: Whole cell quantitative proteomics: extended kinome hits; settings: Accession Q9UHH9
# T2 sequence (Q9UHH9 1-426): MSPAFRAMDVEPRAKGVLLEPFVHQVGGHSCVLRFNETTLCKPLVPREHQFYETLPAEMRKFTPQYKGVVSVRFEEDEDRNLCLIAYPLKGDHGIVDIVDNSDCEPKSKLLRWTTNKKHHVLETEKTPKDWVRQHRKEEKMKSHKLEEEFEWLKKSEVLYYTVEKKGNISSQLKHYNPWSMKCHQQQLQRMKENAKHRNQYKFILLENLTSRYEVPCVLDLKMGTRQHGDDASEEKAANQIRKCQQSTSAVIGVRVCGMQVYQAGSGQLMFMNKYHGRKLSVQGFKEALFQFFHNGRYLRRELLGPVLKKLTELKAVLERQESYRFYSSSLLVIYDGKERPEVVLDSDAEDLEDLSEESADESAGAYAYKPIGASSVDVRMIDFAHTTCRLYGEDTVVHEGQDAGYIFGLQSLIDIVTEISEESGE
# Description: Whole cell multiplexed quantitative proteomics was employed to measure changes in abundance of the proteome in response to treatment with each of the kinase degrader molecules relative to DMSO (Table 1, Appendix I).
# Cells were treated with DMSO (biological triplicate) or degrader at indicated dose and time and cells were harvested by centrifugation. […] Precipitated protein was resuspended in 4 M Urea, 50 mM HEPES pH 7.4, followed by dilution to 1 M urea with the addition of 200 mM EPPS, pH 8. Proteins were first digested with LysC (1:50: enzyme:protein) for 12 hours at room temperature. The LysC digestion was diluted to 0.5 M Urea with 200 mM EPPS pH 8 followed by digestion with trypsin (1:50; enzyme:protein) for 6 hours at 37° C. Tandem mass tag (TMT) reagents (Thermo Fisher Scientific) were dissolved in anhydrous acetonitrile (ACN) according to manufacturer's instructions. […] The 10, 11, or 16-plex labeling reactions were performed for 1.5 hours at room temperature and the reaction quenched by the addition of hydroxylamine to a final concentration of 0.3% for 15 minutes at room temperature. The sample channels were combined at a 1:1 ratio, desalted using C18 solid phase extraction cartridges (Waters®) and analyzed by LC-MS for channel ratio comparison. Samples were then combined using the adjusted volumes determined in the channel ratio analysis and dried down in a speed vacuum. The combined sample was then resuspended in 1% formic acid, and acidified (pH 2-3) before being subjected to desalting with C18 SPE (Sep-Pak®, Waters®). Samples were then offline fractionated into 96 fractions by high pH reverse-phase HPLC (Agilent® LC1260) through an aeris peptide xb-c18 column (Phenomenex®) with mobile phase A containing 5% acetonitrile and 10 mM NH4HCO3 in LC-MS grade H2O, and mobile phase B containing 90% acetonitrile and 10 mM NH4HCO3 in LC-MS grade H2O (both pH 8.0). The 96 resulting fractions were then pooled in a non-continuous manner into 24 fractions and desalted using C18 solid phase extraction plates (SOLA®, Thermo Fisher Scientific) followed by subsequent mass spectrometry analysis.
# Data were collected using an Orbitrap Fusion™ Lumos™ mass spectrometer (Thermo Fisher Scientific, San Jose, CA, USA) coupled with a Proxeon EASY-nLC™ 1200 LC pump (Thermo Fisher Scientific) or an Orbitrap Eclipse™ Tribrid™ mass spectrometer (Thermo Fisher Scientific, San Jose, CA, USA) coupled with an UltiMate™ 3000 RSLCnano System. Peptides were separated on an EasySpray™ ES803a/ES803a.rev2 75 μm inner diameter microcapillary column (ThermoFisher Scientific).
# Data dependent MS2 spectra were acquired in the ion trap with a normalized collision energy (NCE) set at 35%, AGC target set to 1.8×10^4 and a maximum injection time of 120 ms. MS3 scans were acquired in the Orbitrap with HCD collision energy set to 55%. AGC target set to 2×10^5, maximum injection time of 150 ms, resolution at 50,000 and with a maximum synchronous precursor selection (SPS) precursors set to 10.
# Proteome Discoverer™ 2.1, 2.2 or 2.4 (Thermo Fisher Scientific) was used for .RAW file processing and controlling peptide and protein level false discovery rates, assembling proteins from peptides, and protein quantification from peptides.
# [7] = target: protein kinases (human kinome) (Homo sapiens, UniProt P31751); type: cell-based; settings: AKT2 (P31751)
# protein kinases (human kinome) (Homo sapiens, UniProt P31751), sequence (P31751 whole entry): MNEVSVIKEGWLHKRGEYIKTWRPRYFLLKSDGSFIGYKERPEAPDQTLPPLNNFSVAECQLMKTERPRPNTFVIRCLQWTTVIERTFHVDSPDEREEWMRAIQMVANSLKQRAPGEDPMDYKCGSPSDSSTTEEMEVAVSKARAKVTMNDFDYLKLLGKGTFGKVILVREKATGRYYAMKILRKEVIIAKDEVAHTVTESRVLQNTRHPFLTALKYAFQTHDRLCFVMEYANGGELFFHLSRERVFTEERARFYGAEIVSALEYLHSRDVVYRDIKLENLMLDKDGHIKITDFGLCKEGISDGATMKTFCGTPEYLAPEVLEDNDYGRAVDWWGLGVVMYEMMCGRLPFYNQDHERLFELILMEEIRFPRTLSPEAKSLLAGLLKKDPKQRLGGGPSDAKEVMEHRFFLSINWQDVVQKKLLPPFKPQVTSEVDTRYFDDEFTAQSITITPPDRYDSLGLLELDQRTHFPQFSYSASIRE
# [8] = target: protein kinases (human kinome) (Homo sapiens, UniProt Q00536); type: cell-based
# protein kinases (human kinome) (Homo sapiens, UniProt Q00536), sequence (Q00536 whole entry): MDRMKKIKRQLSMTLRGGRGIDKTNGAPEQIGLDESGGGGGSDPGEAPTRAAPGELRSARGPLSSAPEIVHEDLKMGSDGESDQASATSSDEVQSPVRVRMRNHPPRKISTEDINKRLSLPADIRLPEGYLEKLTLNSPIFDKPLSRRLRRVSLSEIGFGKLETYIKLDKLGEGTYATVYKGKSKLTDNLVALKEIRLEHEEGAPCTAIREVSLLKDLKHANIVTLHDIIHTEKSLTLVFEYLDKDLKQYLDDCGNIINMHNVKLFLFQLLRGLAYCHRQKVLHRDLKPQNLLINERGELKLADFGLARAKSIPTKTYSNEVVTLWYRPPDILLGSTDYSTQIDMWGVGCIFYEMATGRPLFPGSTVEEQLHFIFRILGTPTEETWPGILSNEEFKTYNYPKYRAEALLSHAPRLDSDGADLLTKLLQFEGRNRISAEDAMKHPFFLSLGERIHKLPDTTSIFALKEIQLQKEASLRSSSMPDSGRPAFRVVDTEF
# [9] = target: protein kinases (human kinome) (Homo sapiens, UniProt P48730); type: cell-based; settings: for logFC CSNK1D: Accession P48730-1, direction down
# protein kinases (human kinome) (Homo sapiens, UniProt P48730), sequence (P48730 whole entry): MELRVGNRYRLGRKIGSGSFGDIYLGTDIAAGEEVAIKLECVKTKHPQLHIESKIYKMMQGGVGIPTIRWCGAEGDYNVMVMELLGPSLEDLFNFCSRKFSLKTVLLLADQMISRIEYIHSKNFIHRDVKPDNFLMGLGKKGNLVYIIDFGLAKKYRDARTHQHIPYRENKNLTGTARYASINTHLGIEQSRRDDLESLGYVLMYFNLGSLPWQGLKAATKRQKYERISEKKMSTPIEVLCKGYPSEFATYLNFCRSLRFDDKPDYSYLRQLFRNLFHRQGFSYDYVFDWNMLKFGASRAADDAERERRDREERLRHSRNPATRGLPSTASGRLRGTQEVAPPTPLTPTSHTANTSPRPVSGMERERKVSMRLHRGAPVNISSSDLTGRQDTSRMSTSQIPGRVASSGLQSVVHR
# [10] = target: T3, protein kinases (human kinome) (Homo sapiens, UniProt Q9Y616); type: cell-based; settings: experiment wp146; for logFC: IRAK3 (Q9Y616)
# T3 sequence (Q9Y616 1-596): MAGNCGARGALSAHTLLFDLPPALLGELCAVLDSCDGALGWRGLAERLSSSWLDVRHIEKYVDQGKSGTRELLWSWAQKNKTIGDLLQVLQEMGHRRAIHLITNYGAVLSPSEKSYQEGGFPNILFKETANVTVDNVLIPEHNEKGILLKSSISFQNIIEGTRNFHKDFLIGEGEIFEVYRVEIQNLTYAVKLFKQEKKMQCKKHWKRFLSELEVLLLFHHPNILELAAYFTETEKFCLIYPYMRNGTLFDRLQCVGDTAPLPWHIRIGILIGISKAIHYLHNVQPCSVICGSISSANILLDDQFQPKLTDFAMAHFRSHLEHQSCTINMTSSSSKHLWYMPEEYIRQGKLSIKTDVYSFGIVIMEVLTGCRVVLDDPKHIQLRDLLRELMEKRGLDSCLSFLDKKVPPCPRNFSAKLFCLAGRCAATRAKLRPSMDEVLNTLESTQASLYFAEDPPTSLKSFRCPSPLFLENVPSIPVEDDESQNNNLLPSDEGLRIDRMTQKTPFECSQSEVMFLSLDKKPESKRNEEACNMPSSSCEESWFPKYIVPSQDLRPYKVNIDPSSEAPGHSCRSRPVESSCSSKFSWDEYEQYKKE
structure (smiles),measurement,setting,value
CC(=O)c1c(C)c2cnc(Nc3ccc(N4CCN(CCOCCOCCOCCNC(=O)COc5cccc6c5C(=O)N(C5CCC(=O)NC5=O)C6=O)CC4)cn3)nc2n(C2CCCC2)c1=O (stereo not drawn) [BSJ.03.123],logFC,[1],−0.3681
CN(C)C(=O)c1cc2cnc(Nc3ccc(N4CCN(CCCCNC(=O)COc5cccc6c5C(=O)N(C5CCC(=O)NC5=O)C6=O)CC4)cn3)nc2n1C1CCCC1 (stereo not drawn) [BSJ.04.132],logFC,[1],−0.4467
"Cc1ccc(NC(=O)c2cccc(C(F)(F)F)c2)cc1N1Cc2cnc(Nc3ccc(N4CCN(Cc5cn(CCCCCOc6cccc7c6C(=O)N(C6CCC(=O)NC6=O)C7=O)nn5)CC4)nc3)nc2N(C)C1=O (stereo not drawn) [DB0646, N-(3-(7-((6-(4-((1-(5-((2-(2,6-Dioxopiperidin-3-yl)-1,3-dioxoisoindolin-4-yl)oxy)pentyl)-1H-1,2,3-triazol-4-yl)methyl)piperazin-1-v)pyridin-3-yl)amino)-1-methyl-2-oxo-1,4-dihydropyrimido[4,5-d]pyrimidin-3(2H)-yl)-4-methylphenyl)-3-(trifluoromethyl)benzamide]",logFC of LRRK2 (Q5S007),"[2]; Experiment wp160, 2 hr",−1.181
same,logFC,"[2]; experiment wp160, 2 hr",−1.181
same,logFC,"[2]; experiment wp160, 4 hr",−1.307
same,logFC,"[2]; experiment wp160, 1 hr",−1.165
same,logFC,"[2]; experiment wp160, 8 hr",−1.747
same,logFC of LRRK2 (Q5S007),"[2]; experiment wp160, 1 hr",−1.165
same,logFC of LRRK2 (Q5S007),"[2]; experiment wp160, 4 hr",−1.307
same,logFC of LRRK2 (Q5S007),"[2]; experiment wp160, 8 hr",−1.747
Cc1ccc(NC(=O)c2cccc(C(F)(F)F)c2)cc1N1Cc2cnc(Nc3ccc(N4CCN(CCCOc5cccc6c5C(=O)N(C5CCC(=O)NC5=O)C6=O)CC4)nc3)nc2N(C)C1=O (stereo not drawn) [DB0662],logFC of PDIK1L (Q8N165),[3],−0.3272
same,logFC,[3],−0.3272
Cc1ccc(NC(=O)c2cccc(C(F)(F)F)c2)cc1N1Cc2cnc(Nc3ccc(N4CCN(CCCCC(=O)N[C@H](C(=O)N5C[C@H](O)C[C@H]5C(=O)N[C@@H](C)c5ccc(-c6scnc6C)cc5)C(C)(C)C)CC4)nc3)nc2N(C)C1=O [DB1113],logFC of PDIK1L (Q8N165),[3],−0.5334
same,logFC,[3],−0.5334
Cc1ncsc1-c1ccc([C@H](C)NC(=O)[C@@H]2C[C@@H](O)CN2C(=O)[C@@H](NC(=O)CCOCCOCCN2CCN(c3ccc(Nc4ncc(Cl)c(Nc5ccccc5S(=O)(=O)C(C)C)n4)cc3)CC2)C(C)(C)C)cc1 [FMF.06.098.1],logFC of RPSGKA4 (O75676),[4]; Experiment wp108,−0.4196
same,logFC,[4]; experiment wp108,−0.4196
same,logFC,[4]; experiment wp131,−0.5351
same,logFC of RPS6KA4 (O75676),[4]; experiment wp131,−0.5351
same,logFC of IRAK4 (Q9NWZ3-1),[5]; Experiment wp108,−0.6505
same,logFC,[5]; experiment wp108,−0.6505
same,logFC,[5]; experiment wp131,−0.7086
same,logFC of IRAK4 (Q9NWZ3-1),[5]; experiment wp131,−0.7086
C[C@@H]1C[C@@H](O)c2ncnc(N3CCN(C(=O)[C@H](CNCCCCCCCCCCc4cccc5c4C(=O)N(C4CCC(=O)NC4=O)C5=O)c4ccc(Cl)cc4)CC3)c21 (stereo partly drawn) [INY.03.041.01],logFC IP6K2,[6]; experiment wp118,−0.662
same,logFC IP6K2,"[6]; experiment wp135, 4 hr",−0.3251
same,logFC,[7]; experiment wp118,−2.777
same,logFC,"[7]; experiment wp118, direction down",−2.777
same,logFC,"[7]; experiment wp135, 4 hr",−1.739
same,logFC,"[7]; experiment wp135, 4 hr, direction down",−1.739
Cc1cnc(Nc2ccc(N3CCN(CCCCCCC(=O)N[C@H](C(=O)N4C[C@H](O)C[C@H]4C(=O)N[C@@H](C)c4ccc(-c5scnc5C)cc4)C(C)(C)C)CC3)cc2)nc1Nc1cccc(S(=O)(=O)NC(C)(C)C)c1 [JWG.123],logFC CDK16 (Q00536-1),[8]; Experiment wp195,−0.5026
same,logFC of CDK16 (Q00536-1),[8]; Experiment wp195,−0.5026
CC(C)S(=O)(=O)c1ccccc1Nc1nc(Nc2ccc(N3CCN(CCOCCNC(=O)CNc4cccc5c4C(=O)N(C4CCC(=O)NC4=O)C5=O)CC3)cc2)ncc1Cl (stereo not drawn) [SK.3.91],logFC IP6K2,"[6]; experiment wp016, 1 uM",−0.9368
same,logFC IP6K2,[6]; experiment wp107,−1.472
same,logFC IP6K2,"[6]; experiment wp133, 1 hr",−0.4547
same,logFC IP6K2,"[6]; experiment wp133, 2 hr",−0.6461
same,logFC IP6K2,"[6]; experiment wp133, 4 hr",−0.9692
same,logFC IP6K2,"[6]; experiment wp160, 2 hr",−0.4937
same,logFC IP6K2,"[6]; experiment wp160, 4 hr",−0.6281
same,logFC CDK16 (Q00536-1),[8]; Experiment wp172,−0.8169
same,logFC of CDK16 (Q00536-1),[8]; Experiment wp172,−0.8169
same,logFC,"[2]; experiment wp160, 1 hr",−0.8447
same,logFC of LRRK2 (Q5S007),"[2]; experiment wp160, 1 hr",−0.8447
same,logFC CSNK1D,"[9]; experiment wp133, 4 hr",−0.4585
same,logFC of CSNK1D (P48730-1),"[9]; experiment wp133, 4 hr",−0.4585
same,logFC,[7]; experiment wp105,−0.8722
same,logFC,"[7]; experiment wp105, direction down",−0.8722
same,logFC,[7]; experiment wp107,−0.4141
same,logFC,"[7]; experiment wp107, direction down",−0.4141
CC(C)S(=O)(=O)c1ccccc1Nc1nc(Nc2ccc(N3CCN(CCOCCOCCNC(=O)CNc4cccc5c4C(=O)N(C4CCC(=O)NC4=O)C5=O)CC3)cc2)ncc1Cl (stereo not drawn) [TL12.186],logFC IP6K2,[6]; experiment wp137,−0.7538
same,logFC CSNK1D,[9]; experiment wp131,−0.3551
same,logFC of CSNK1D (P48730-1),[9]; experiment wp131,−0.3551
same,logFC,[5]; experiment wp131,−0.4293
same,logFC,[5]; experiment wp137,−0.4185
same,logFC of IRAK4 (Q9NWZ3-1),[5]; experiment wp131,−0.4293
same,logFC of IRAK4 (Q9NWZ3-1),[5]; experiment wp137,−0.4185
NC(=O)c1c(F)cccc1Nc1nc(Nc2ccc(S(=O)(=O)NCCOCCOCCOCCOCCNc3cccc4c3C(=O)N(C3CCC(=O)NC3=O)C4=O)cc2)ncc1Br (stereo not drawn) [TMX.02.138],logFC,[10],−1.544
same,logFC of IRAK3 (Q9Y616),[10],−1.544
Cc1cc(Nc2ncc(Br)c(Nc3cccc(F)c3C(N)=O)n2)ccc1S(=O)(=O)NCCOCCOCCOCCOCCNc1cccc2c1C(=O)N(C1CCC(=O)NC1=O)C2=O (stereo not drawn) [TMX.02.174],logFC,[4]; experiment wp146,−1.5
same,logFC of RPS6KA4 (O75676),[4]; experiment wp146,−1.5
same,logFC,[10],−1.343
same,logFC of IRAK3 (Q9Y616),[10],−1.343
